Values of other authors as cited in patent US20210316003A1 (Immunomedics, Inc., priority 2020, published 2021).
Like-named read-outs stand apart in the source and are kept apart here.

What was measured:
patients = conditions: single-agent therapy; cited from earlier work
[1] = system: patients with advanced colorectal cancer; conditions: cited from earlier work
SCLC patients = conditions: 28 SCLC patients; cited from earlier work
[2] = system: patients with relapsed SCLC; conditions: cited from earlier work
[3] = system: patients with recurrent SCLC; conditions: nivolumab alone; cited from earlier work

CCc1c2c(nc3ccc(OC(=O)N4CCC(N5CCCCC5)CC4)cc13)-c1cc3c(c(=O)n1C2)COC(=O)[C@]3(O)CC [irinotecan]
Grade ≥3 events of early diarrhea (patients): 8% | Grade ≥3 events of late diarrhea (patients): 31% | Response ([1]; TDP1 IVS12+79 G/G genotype): 64% | Response ([1]; TDP1 IVS12+79 T/T genotype): 25% | Incidence of grade 3/4 neutropenia ([1]; TOP1 IVS4+61 A/A genotype (small sample size)): 50% | Incidence of grade 3/4 neutropenia ([1]; TOP1 IVS4+61 G/G genotype): 8%

CC[C@@]1(O)C(=O)OCc2c1cc1n(c2=O)Cc2cc3c(CN(C)C)c(O)ccc3nc2-1 [topotecan]
Median survival (SCLC patients): 5 months | One-year survival (SCLC patients): 3.5% | PR (SCLC patients): 11% | Grade ≥3 anemia ([2]; SCLC, meta-analysis): 24% | Grade ≥3 neutropenia ([2]; SCLC, meta-analysis): 69% | Grade ≥3 thrombocytopenia ([2]; SCLC, meta-analysis): 1% | Patients who died from this chemotherapy ([2]; SCLC, meta-analysis): approximately 2% | Objective response rate ([2]; chemoresistant frontline SCLC patients): 5% | Objective response rate ([2]; chemosensitive SCLC patients): 17%

Nivolumab: inhibitor of the T-cell checkpoint receptor PD-1
Response rate [3]: 10%
